Each structure is given as a SMILES string. Activity calls are given as the source filed them. The rule behind the calls is not given here. A value given as a limit tells only on which side of the number the result lay.

T1 sequence (P27694 whole entry): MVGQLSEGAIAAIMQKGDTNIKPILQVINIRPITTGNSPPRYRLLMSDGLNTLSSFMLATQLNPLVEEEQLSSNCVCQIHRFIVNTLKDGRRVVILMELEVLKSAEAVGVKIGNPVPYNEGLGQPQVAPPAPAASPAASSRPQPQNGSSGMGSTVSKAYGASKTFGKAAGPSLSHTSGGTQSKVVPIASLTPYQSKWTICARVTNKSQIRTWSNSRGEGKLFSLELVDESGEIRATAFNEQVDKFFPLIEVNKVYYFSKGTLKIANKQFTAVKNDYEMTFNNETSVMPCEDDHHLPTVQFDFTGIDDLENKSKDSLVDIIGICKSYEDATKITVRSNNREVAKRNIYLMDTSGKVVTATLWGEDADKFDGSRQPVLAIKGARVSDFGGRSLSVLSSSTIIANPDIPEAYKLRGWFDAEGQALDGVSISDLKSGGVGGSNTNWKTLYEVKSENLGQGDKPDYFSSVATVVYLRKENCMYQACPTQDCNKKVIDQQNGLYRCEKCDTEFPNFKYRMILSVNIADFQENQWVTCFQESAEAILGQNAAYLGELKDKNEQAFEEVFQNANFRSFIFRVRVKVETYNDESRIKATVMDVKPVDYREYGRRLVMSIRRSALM

One experiment has as its target T1, Replication protein A 70 kDa DNA-binding subunit (Homo sapiens, UniProt P27694). Put plainly: Binding affinity to human RPA70N expressed in Escherichia coli BL21 (DE3) assessed as inhibition of interaction with FITC-Ahx-DFTADDLEELDTLAS-NH2 after 1 hr by fluorescence polarization anisotropy assay.
`CC(C)C1=C[C@]23CC[C@@H]4[C@](C)(CCC[C@@]4(C)C(=O)O)[C@H]2C[C@@H]1[C@@H](C(=O)O)[C@@H]3C(=O)O`: the dissociation constant (Kd) was determined as 18.3 µM.

For another experiment, the species on record is Homo sapiens. As to the kind of experiment: Inhibition of full length RPA (unknown origin) binding to ssDNA up to 100 uM preincubated for 5 mins prior to substrate addition measured after 30 mins by EMSA.
As for `O=C(O)c1sc2cc(-n3c(S)nnc3-c3ccc(Br)c(Cl)c3)ccc2c1Cl`, the inhibition result is “inactive”.
The same measure, in the same setting: the result for `O=C(O)c1sc2cc(-n3c(S)nnc3-c3ccc(Cl)c(Cl)c3)ccc2c1Cl` reads “inactive”.

Another experiment addresses T1, Replication protein A 70 kDa DNA-binding subunit. Put plainly: Binding affinity to human RPA (1 to 422) containing RPA70N and RPA70NAB assessed as inhibition of interaction with FITC-Ahx-DFTADDLEELDTLAS-NH2 after 1 hr by fluorescence polarization anisotropy assay.
As to `O=C(O)c1sc2cc(-n3c(S)nnc3-c3ccc(Br)c(Cl)c3)ccc2c1Cl`, the Kd stood at 10 µM.
Still for that read-out and setting: the result for `O=C(O)c1sc2cc(-n3c(S)nnc3-c3ccc(Cl)c(Cl)c3)ccc2c1Cl` reads 17 µM.

The target is the same in a further experiment. As to the kind of experiment: Binding affinity to human RPA70N assessed as inhibition of interaction with FITC-Ahx-DFTADDLEELDTLAS-NH2 after 1 hr by fluorescence polarization anisotropy assay.
For `Cc1cccc(-c2n[nH]c(=S)n2-c2ccc3cc(C(=O)O)sc3c2)c1`, the Kd is over 250 µM.
The same measure, in the same setting: the result for `Cc1ccccc1-c1nnc(S)n1-c1ccc2c(Cl)c(C(=O)O)sc2c1` reads 66 µM; that for `Cc1ccccc1-c1nnc(S)n1-c1ccc2cc(C(=O)O)sc2c1`, over 250 µM; that for `O=C(O)CSc1nnc(-c2sc3ccccc3c2Cl)n1-c1ccccc1`, 135 µM.
Same read-out and setting: the result for `O=C(O)CSc1nnc(-c2ccc3ccccc3c2)n1-c1ccc(Cl)c(Cl)c1` reads 47 µM.
Same read-out and setting: the result for `O=C(O)c1sc2cc(-n3c(S)nnc3-c3c[nH]c4ccccc34)ccc2c1Cl` reads over 250 µM; that for `O=C(O)c1cc2ccc(-n3c(S)nnc3-c3ccccc3)cc2s1`, over 250 µM; that for `Cc1ccc2c(Cl)c(-c3nnc(SCC(=O)O)n3-c3ccc(Cl)c(Cl)c3)sc2c1`, 18 µM.
Take `COc1ccc(-c2nnc(SCC(=O)O)n2-c2ccc(Cl)cc2)cc1`: the Kd is over 250 µM.
Same read-out and setting: as for `O=C(O)CSc1nnc(-c2ccc(O)cc2)n1-c1ccc(Cl)c(Cl)c1`, the figure is 233 µM.
For `O=C(O)c1sc2cc(-n3c(S)nnc3-c3ccc(F)cc3)ccc2c1Cl`, the equilibrium dissociation constant (Kd) was found to be 47 µM.
Regarding `O=C(O)c1sc2cc(-n3c(-c4cccc(Oc5ccccc5)c4)n[nH]c3=S)ccc2c1Cl`, the Kd was determined as 63 µM.
Same read-out and setting: as for `O=C(O)c1cc2ccc(-n3c(-c4ccc(F)cc4)n[nH]c3=S)cc2s1`, the figure is over 250 µM; as for `O=C(O)c1cc2ccc(-n3c(S)nnc3-c3ccc(Br)c(Cl)c3)cc2s1`, 12 µM.
For `Cc1cccc(-c2n[nH]c(=S)n2-c2ccc3c(Cl)c(C(=O)O)sc3c2)c1`, the dissociation constant (Kd) is 83 µM.
Take `O=C(O)CSc1nnc(-c2ccc(F)cc2)n1-c1cccc(Cl)c1`: the Kd is over 250 µM.
On the same count and under the same terms, the result for `Cc1ccccc1-c1nnc(SCC(=O)O)n1-c1cccc(Cl)c1` reads over 250 µM; that for `O=C(O)CSc1nnc(-c2ccc([N+](=O)[O-])cc2)n1-c1ccc(Cl)c(Cl)c1`, 178 µM.
Still for that read-out and setting: as for `O=C(O)CSc1nnc(-c2cc3ccccc3s2)n1-c1ccc(Cl)c(Cl)c1`, the figure is 58 µM; as for `O=C(O)c1sc2cc(-n3c(S)nnc3-c3ccc(Cl)cc3)ccc2c1Cl`, 52 µM.
On the same count and under the same terms, the result for `Cc1cc(-c2nnc(S)n2-c2ccc3c(Cl)c(C(=O)O)sc3c2)ccc1Br` reads 31 µM; that for `O=C(O)c1sc2cc(-n3c(-c4ccc5ccccc5c4)n[nH]c3=S)ccc2c1Cl`, 43 µM.
Take `O=C(O)c1cc2ccc(-n3c(-c4cccc(Br)c4)n[nH]c3=S)cc2s1`: the equilibrium dissociation constant (Kd) amounted to 49 µM.
Still for that read-out and setting: as for `O=C(O)c1cc2ccc(-n3c(-c4cccc(Oc5ccccc5)c4)n[nH]c3=S)cc2s1`, the figure is 104 µM; as for `O=C(O)CSc1nnc(-c2ccccc2Cl)n1-c1cccc(Cl)c1`, over 250 µM.
With `O=C(O)CSc1nnc(-c2sc3ccccc3c2Cl)n1-c1ccc(Cl)c(Cl)c1`, the Kd is 46 µM.
Take `Cc1ccc(-c2n[nH]c(=S)n2-c2ccc3c(Cl)c(C(=O)O)sc3c2)cc1`: the Kd is 92 µM.
Same read-out and setting: as for `Clc1ccc(-c2nn[nH]n2)cc1`, the figure is 1850 µM; as for `O=C(O)c1cc2ccc(-n3c(S)nnc3-c3ccc(Cl)c(Cl)c3)cc2s1`, 22 µM.
Still for that read-out and setting: as for `O=C(O)c1cc2ccc(-n3c(-c4cc(Cl)cc(Cl)c4)n[nH]c3=S)cc2s1`, the figure is 35 µM.
On to `O=C(O)CSc1nnc(-c2ccc(F)cc2)n1-c1ccc(Cl)cc1`, for which the Kd is over 250 µM.
Regarding `COc1ccc(-c2nnc(SCC(=O)O)n2-c2ccc(Cl)c(Cl)c2)cc1`, the Kd is 164 µM.
As to `O=C(O)c1sc2cc(-n3c(S)nnc3-c3ccccc3)ccc2c1Cl`, the dissociation constant Kd was found to be 130 µM.
Same read-out and setting: as for `Cc1cccc(-c2n[nH]c(=S)n2-c2ccc3c(Cl)c(C(=O)O)sc3c2)c1Br`, the figure is 48 µM.
As for `O=C(O)c1sc2cc(-n3c(S)nnc3-c3ccc(Br)cc3)ccc2c1Cl`, the Kd came to 42 µM.
Take `O=C(O)CSc1nnc(-c2ccccc2Br)n1-c1cccc(Cl)c1`: the dissociation constant (Kd) was over 250 µM.
On the same count and under the same terms, as for `O=C(O)c1cc2ccc(-n3c(S)nnc3-c3ccc(Cl)cc3)cc2s1`, the figure is 78 µM.
Regarding `O=C(O)c1sc2cc(-n3c(S)nnc3-c3cccc(Br)c3)ccc2c1Cl`, the dissociation constant (Kd) stood at 58 µM.
On to `O=C(O)c1sc2cc(-n3c(-c4ccc(Cl)c(Br)c4)n[nH]c3=S)ccc2c1Cl`, for which the Kd was found to be 16 µM.
The same measure, in the same setting: as for `O=C(O)c1cc2ccc(-n3c(-c4ccc(Br)cc4)n[nH]c3=S)cc2s1`, the figure is 71 µM; as for `COc1ccc(-c2nnc(SCC(=O)O)n2-c2cccc(Cl)c2)cc1`, over 250 µM; as for `O=C(O)c1sc2cc(-n3c(S)nnc3-c3ccc(Br)c(Cl)c3)ccc2c1Cl`, 11 µM.
Still for that read-out and setting: as for `O=C(O)c1sc2cc(Cl)ccc2c1Cl`, the figure is 627 µM.
As to `O=C(O)c1sc2cc(-n3c(S)nnc3C3CCCCC3)ccc2c1Cl`, the Kd came to 25 µM.
On the same count and under the same terms, as for `O=C(O)c1sc2cc(-n3c(S)nnc3-c3ccc(Cl)c(Cl)c3)ccc2c1Cl`, the figure is 11 µM; as for `O=C(O)c1sc2cc(-n3c(-c4cc(Cl)cc(Cl)c4)n[nH]c3=S)ccc2c1Cl`, 15 µM.
For the molecule `Nc1ccc(-c2nnc(SCC(=O)O)n2-c2ccc(Cl)c(Cl)c2)cc1`, the Kd stood at 109 µM.
Still for that read-out and setting: as for `Cc1ccc(-c2nnc(S)n2-c2ccc3cc(C(=O)O)sc3c2)cc1`, the figure is over 250 µM.

System in the next experiment: not listed separately
As to the kind of experiment: Inhibition of human RPA binding to [32P]-ssDNA overexpressed in Escherichia coli by EMSA.
On to `CCOc1ccc2cc(C3CN(C(=O)CCC(=O)O)N=C3c3ccc(Br)cc3)c(Cl)nc2c1` (centres undefined), for which the IC50 worked out at 40 µM.

Source of the values: ChEMBL document CHEMBL2406933, “Discovery of Protein-Protein Interaction Inhibitors of Replication Protein A” (ACS Med Chem Lett, 2013).
